Data from publication PMC12858405, “Ideal efficacy photoswitching for chromocontrol of TRPC4/5 channel functions in live tissues” (Nature Chemical Biology, 2026).

What was measured:
heteromeric TRPC5:TRPC1 = target: T1, heteromeric TRPC5:TRPC1 (Homo sapiens, UniProt Q9UL62); parameters: method as in earlier work; conditions: supplement cites it as ref 8; cited from earlier work
T1 construct: expressed in transfected cells; host or cells: HEK293, transiently transfected

EA-activated TRPC4 = target: T2, EA-activated TRPC4 (Mus musculus, UniProt Q9QUQ5); assay: FLIPR Ca2+ assay, E isomers silencing EA-activated TRPC4 (HEK293-mTRPC4β-YFP); format: cell-based
T2 construct: expressed in transfected cells; host or cells: HEK293-mTRPC4β-YFP
T2 sequence (Q9QUQ5 1-890 isoform Q9QUQ5-2): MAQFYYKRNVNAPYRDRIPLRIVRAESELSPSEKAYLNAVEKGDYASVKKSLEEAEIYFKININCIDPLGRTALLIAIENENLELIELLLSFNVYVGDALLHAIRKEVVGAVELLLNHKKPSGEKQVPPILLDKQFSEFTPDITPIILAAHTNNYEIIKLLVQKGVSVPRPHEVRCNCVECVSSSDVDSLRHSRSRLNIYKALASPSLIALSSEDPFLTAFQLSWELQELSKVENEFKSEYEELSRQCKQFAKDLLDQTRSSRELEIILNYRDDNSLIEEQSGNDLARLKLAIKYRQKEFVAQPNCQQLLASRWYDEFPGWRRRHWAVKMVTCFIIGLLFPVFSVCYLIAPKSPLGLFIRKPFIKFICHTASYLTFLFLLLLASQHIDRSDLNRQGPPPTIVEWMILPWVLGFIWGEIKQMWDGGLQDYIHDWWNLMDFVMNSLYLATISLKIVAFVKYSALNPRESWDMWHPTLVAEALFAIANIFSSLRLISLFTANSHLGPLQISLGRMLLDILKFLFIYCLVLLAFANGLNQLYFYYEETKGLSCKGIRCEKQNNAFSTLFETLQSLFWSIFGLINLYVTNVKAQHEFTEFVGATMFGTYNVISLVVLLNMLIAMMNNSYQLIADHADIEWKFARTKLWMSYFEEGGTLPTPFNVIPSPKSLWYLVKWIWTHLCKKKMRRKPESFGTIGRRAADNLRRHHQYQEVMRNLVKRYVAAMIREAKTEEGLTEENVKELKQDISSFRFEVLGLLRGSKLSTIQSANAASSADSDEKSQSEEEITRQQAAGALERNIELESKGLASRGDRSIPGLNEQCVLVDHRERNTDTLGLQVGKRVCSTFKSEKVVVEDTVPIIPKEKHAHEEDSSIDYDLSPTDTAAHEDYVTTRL
From the text: (2) The EC50 values are reported as the midpoints of unconstrained sigmoidal fits to the FLIPR data (Fig 1l and Supplementary Fig. 2): with different levels of channel activation / blocking and very different Hill slopes across different compounds, isomers, and the two channels. This argues that the midpoint values only capture one of the several important factors describing the […]
We believe that it is possible to derive indicative relative values for binding affinity comparing the E and Z isomers of the same compound using only the combination of FLIPR and ephys data as reported in this paper; this analysis is being developed in a separate paper (see also below).
Supplementary Table 1. Potencies on TRPC4/5 depicted as either simple agonistic potency (blue) or else inhibitory […]
. Z*-values refer to mostly-Z-isomer reached at PSS at 365 nm, E*-values refer to experiments that initially applied 100% E-isomer (thermally relaxed), though in both cases the Ca2+ imaging in FLIPR with Fluo4-AM uses 470 nm excitation, which may over time promote photoswitching towards a PSS that is intermediate between those of pure-365 nm and all-E; this is controlled for in the more reliable ephys measurements). (Table indices: a, data from ref7; b, data from ref2; c, data from ref3; d, data from ref8.) EC50 [nM] (for simple agonism or EA-competitive inhibition)
E-AzPico 90 (vs 30 nM EA) 67 (vs 30 nM EA) […]
orange: inhibitory effect ag.: agonistic effect
1.1.1 From always-active antagonists and agonists towards efficacy photoswitches […]
photoisomerising an azobenzene that is merged in at the C’4 position yielding the compounds […]
deliver (Fig. 1-2) is a powerful support for an efficacy switch interpretation. To indirectly support this further, we also measured the effects of E-AzPico and E-AzHC against EA-activated TRPC4/5. […]
to be an EA-competitive binder5,9,10), so their efficacy as single agent photoswitches results from E/Z-competitive binding that is determined by their PSS. […]
Supplementary Table 2. […] (a Inhibitory effect measured against 30 nM EA; b Inhibitory effect measured against 50 nM EA). […]

T1 sequence (Q9UL62 whole entry): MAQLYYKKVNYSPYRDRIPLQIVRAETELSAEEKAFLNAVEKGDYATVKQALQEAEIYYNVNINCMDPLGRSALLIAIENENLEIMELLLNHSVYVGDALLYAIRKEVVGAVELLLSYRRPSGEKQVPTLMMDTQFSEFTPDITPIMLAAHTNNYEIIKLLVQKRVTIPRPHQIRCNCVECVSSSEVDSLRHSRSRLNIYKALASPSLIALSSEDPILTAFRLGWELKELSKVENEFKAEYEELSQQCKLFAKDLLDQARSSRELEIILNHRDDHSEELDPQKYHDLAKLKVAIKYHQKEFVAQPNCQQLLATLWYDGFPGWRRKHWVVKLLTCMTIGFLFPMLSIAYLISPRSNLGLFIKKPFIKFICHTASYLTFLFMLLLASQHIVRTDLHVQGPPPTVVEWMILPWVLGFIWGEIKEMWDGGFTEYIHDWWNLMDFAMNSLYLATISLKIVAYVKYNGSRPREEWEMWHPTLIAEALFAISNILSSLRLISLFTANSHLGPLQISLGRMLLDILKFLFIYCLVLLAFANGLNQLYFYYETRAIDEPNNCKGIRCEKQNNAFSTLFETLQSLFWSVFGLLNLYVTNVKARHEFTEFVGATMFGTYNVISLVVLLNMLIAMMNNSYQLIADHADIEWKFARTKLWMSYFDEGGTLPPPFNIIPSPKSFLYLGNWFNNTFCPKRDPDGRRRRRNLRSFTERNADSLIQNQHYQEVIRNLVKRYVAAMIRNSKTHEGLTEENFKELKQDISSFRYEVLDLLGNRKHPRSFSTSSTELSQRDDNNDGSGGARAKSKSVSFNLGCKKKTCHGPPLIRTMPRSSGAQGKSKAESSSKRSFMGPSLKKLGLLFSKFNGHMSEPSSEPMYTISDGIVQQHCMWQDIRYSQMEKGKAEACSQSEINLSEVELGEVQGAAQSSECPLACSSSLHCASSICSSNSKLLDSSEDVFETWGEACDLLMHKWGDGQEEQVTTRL
T1 sequence (P48995 whole entry partner): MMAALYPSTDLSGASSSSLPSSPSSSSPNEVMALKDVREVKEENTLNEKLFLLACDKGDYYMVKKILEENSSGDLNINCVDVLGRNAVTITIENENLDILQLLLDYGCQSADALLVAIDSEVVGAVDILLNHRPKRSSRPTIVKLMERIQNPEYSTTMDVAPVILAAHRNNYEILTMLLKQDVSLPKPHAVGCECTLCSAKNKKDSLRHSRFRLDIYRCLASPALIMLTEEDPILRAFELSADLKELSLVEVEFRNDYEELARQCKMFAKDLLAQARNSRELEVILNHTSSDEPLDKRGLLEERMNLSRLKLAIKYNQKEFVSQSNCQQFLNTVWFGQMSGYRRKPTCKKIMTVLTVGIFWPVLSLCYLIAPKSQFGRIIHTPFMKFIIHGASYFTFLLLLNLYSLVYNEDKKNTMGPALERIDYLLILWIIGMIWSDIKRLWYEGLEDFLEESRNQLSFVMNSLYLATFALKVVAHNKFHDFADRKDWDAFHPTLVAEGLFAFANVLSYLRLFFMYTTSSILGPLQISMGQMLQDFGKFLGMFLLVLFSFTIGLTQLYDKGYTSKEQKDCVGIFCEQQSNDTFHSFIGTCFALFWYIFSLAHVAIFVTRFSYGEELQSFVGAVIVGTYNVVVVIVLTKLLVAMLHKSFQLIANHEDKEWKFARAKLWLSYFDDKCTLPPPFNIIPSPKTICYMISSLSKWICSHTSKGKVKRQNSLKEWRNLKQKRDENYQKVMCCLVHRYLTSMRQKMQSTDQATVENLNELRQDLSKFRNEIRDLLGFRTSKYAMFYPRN

Row | SMILES | Activation of heteromeric TRPC1:TRPC5 (heteromeric TRPC5:TRPC1) | IC50 (EA-activated TRPC4; Inhibitory IC50 (versus 30 nM EA) TRPC4, E isomer, thermally relaxed, 30 nM EA) [nM] | IC50 (EA-activated TRPC4; Inhibitory IC50 (versus 50 nM EA) TRPC4, E isomer, 50 nM EA) [nM]
1 | Cn1c(=O)n(CCCO)c(=O)c2c1nc(Oc1ccc(Cl)c(OC(F)(F)F)c1)n2Cc1ccc(Cl)cc1 [AM237, reference compound] | does not activate | – | –
2 | Cn1c(=O)n(CCCO)c(=O)c2c1nc(Oc1ccc(/N=N/c3ccccc3)c(OC(F)(F)F)c1)n2Cc1ccc(Cl)cc1 [E-AzPico] | – | 90 | 86
